Where two headings read alike, the source gives them in different places. Blank lines part the entries; values can stand above or below the compound they belong to.
What was measured:
PLD [1] = molecular target: T1, PLD (Rattus norvegicus, UniProt P70498); assay: In vitro fluorescent PLD assay in cell membranes (B-PC substrate with butanol, B-PBt product); format: biochemical
T1 construct: PC12K membranes were incubated with either B-PC (for PLD assay) or commercial B-lyso-PC (for lyso-PLD assay); endogenous in cells; host or cells: PC12K and A7r5 cell membranes (100,000 x g pellet)
T1 sequence (P70498 whole entry): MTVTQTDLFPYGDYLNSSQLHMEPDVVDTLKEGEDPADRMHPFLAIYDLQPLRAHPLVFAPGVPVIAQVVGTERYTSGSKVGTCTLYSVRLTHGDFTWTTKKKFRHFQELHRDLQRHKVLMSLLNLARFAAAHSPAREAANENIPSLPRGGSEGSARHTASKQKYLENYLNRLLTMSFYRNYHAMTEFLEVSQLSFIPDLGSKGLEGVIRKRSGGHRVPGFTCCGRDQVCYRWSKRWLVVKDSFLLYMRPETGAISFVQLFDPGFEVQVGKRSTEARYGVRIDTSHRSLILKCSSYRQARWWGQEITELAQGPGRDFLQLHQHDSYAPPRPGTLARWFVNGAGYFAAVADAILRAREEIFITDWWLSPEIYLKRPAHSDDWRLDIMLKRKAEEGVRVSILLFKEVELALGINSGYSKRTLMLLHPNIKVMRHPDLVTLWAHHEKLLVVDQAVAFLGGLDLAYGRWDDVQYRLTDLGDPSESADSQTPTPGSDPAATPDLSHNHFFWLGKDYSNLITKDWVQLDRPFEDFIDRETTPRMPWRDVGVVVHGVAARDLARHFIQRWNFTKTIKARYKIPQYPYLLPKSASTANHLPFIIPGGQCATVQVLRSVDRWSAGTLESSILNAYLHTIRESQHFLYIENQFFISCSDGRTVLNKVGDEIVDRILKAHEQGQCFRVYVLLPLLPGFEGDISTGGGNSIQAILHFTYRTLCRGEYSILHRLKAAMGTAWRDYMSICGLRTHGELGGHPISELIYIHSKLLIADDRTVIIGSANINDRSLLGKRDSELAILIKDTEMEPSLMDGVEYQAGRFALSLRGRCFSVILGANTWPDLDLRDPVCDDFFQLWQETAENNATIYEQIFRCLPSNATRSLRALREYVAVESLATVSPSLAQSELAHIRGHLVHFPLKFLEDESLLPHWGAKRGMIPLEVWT

PLD [2] = system: PLD; design: method as in PMID 9655185; conditions: cited from earlier work
PLD [3] = assay: PLD activity in intact cells; format: cell-based; conditions: multiple cell types, varying experimental conditions
lyso-PLD [4] = format: biochemical, human; conditions: PC-3 membranes; for EC50: single-site competition fit, read-out: EC50 for inhibiting B-lyso-PC conversion to B-LPA; for Ability to compete with B-lyso-PC for utilization by lyso-PLD: up to 4.6 mM
lyso-PLD [5] = assay: In vitro membrane lyso-PLD assay (B-lyso-PC substrate, B-LPA product); format: biochemical, rat
cabbage PLD = conditions: cited from earlier work
PLC from Bacillus cereus = conditions: cited from earlier work

Compound: O=S(=O)([O-])[O-].[Cu+2] [copper sulfate]
Inhibition of PLD in screening assays (PLD [1]): did not inhibit PLD

Compound: O=S(=O)([O-])[O-].[Mg+2] [magnesium sulfate]
Inhibition of PLD in screening assays (PLD [1]): did not inhibit PLD

Compound: O=[N+]([O-])c1ccc(OP(=O)(O)O)cc1 [para-nitrophenol phosphate]
Inhibition of PLD in screening assays (PLD [1]): did not inhibit PLD

Compound: pervanadate
Effect on PLD in intact endothelial cells (PLD [2]): activate PLD
Inhibition of PLD in intact cells (PLD [3]): failed to show that vanadate, pervanadate, or iodate inhibits PLD

Compound: CCCCCCCCCCCCCCCC(=O)OC[C@@H](O)COP(=O)([O-])OCC[N+](C)(C)C [C16-lyso-PC]
EC50 (lyso-PLD [4]): ~300 µM

Inhibition of PLD in screening assays (PLD [1]; concentrations of 1–10 mM): did not inhibit PLD
Compound: O=C([O-])C(=O)[O-].[K+].[K+] [potassium oxalate]

Compound: [Na+].[Na+].[O]=[Mo](=[O])([O-])[O-] [sodium molybdate]
Inhibition of PLD in screening assays (PLD [1]; concentrations of 1–10 mM): did not inhibit PLD

Compound: Lyso-phosphatidylserine
Ability to compete with B-lyso-PC for utilization by lyso-PLD (lyso-PLD [4]): poor competitor

Compound: CCCCCCCCCCCCCCCCCC(=O)OC[C@@H](O)COP(=O)([O-])OCC[N+](C)(C)C [C18-lyso-PC]
EC50 (lyso-PLD [4]): ~300 µM

Inhibition of PLD in screening assays (PLD [1]; concentrations of 1–10 mM): did not inhibit PLD
Compound: O=C([O-])C(=O)[O-].[Na+].[Na+] [sodium oxalate]

Compound: Nc1ncnc2c1ncn2[C@@H]1O[C@H](COP(=O)(O)OP(=O)(O)OP(=O)(O)O)[C@@H](O)[C@H]1O [ATP]
Stimulation of lyso-PLD activity (lyso-PLD [5]): did not stimulate lyso-PLD activity

Compound: CCCCCCCC/C=C\CCCCCCCC(=O)OC[C@@H](O)COP(=O)([O-])OCC[N+](C)(C)C [C18:1-lyso-PC]
EC50 (lyso-PLD [4]): ~300 µM

Compound: CCCCCCCCCCCCCCCCCCOC[C@@H](O)COP(=O)([O-])OCC[N+](C)(C)C [C18-lyso-PAF]
EC50 (lyso-PLD [4]): ~400 µM

Compound: lyso-phosphatidylethanol
Ability to compete with B-lyso-PC for utilization by lyso-PLD (lyso-PLD [4]): least effective

Compound: O=S(=O)([O-])[O-].[Zn+2] [zinc sulfate]
Inhibition of PLD in screening assays (PLD [1]): did not inhibit PLD

Compound: sodium tungstate
Inhibition of PLD in screening assays (PLD [1]; concentrations of 1–10 mM): did not inhibit PLD

Effect on PLD activity (PLD [1]; 8%, cell line not stated): completely inhibited
Compound: C[S+](C)[O-] [dimethylsulfoxide]
Effect on lyso-PLD activity (lyso-PLD [5]; 8%, cell line not stated): relatively insensitive

Compound: O=P(O)(O)OC(CO)CO [β-glycerophosphate]
Inhibition of PLD in screening assays (PLD [1]): did not inhibit PLD

Compound: [Cl-].[Cl-].[Mg+2] [magnesium chloride]
Inhibition of PLD in screening assays (PLD [1]): did not inhibit PLD
Stimulation of lyso-PLD activity (lyso-PLD [5]): did not stimulate lyso-PLD activity

Compound: sodium orthovanadate
B-lyso-PBt production in kinetic study (PLA2): continued but at a reduced rate
Effect on PLA2 activity (generation of B-lyso-PC and B-lyso-PBt from B-PC) (PLA2): did not inhibit
lyso-PC accumulation in kinetic study (PLA2): did not affect lyso-PC accumulation
Direct inhibition of cabbage PLD (cabbage PLD): directly inhibit cabbage PLD
B-PBt levels in kinetic study (PLD [1]; 1 mM added after 10 min, PC12K membranes, B-PC substrate): B-PBt levels declined
Effect on PLD activity (production of B-PBt) (PLD [1]; 1 mM, A7r5 membranes, B-PC substrate): profound inhibition of PLD activity
Inhibition of PLC from Bacillus cereus (PLC from Bacillus cereus): inhibit a PLC from Bacillus cereus
Effect on lyso-PLD activity (B-LPA from B-lyso-PC) (lyso-PLD [5]): did not inhibit
Production of LPA in kinetic study (lyso-PLD [5]): not significantly affected
Inhibition of PLD in intact cells (PLD [3]): failed to show that vanadate, pervanadate, or iodate inhibits PLD

Compound: CCCCCCCCCCCCCCCCOC[C@@H](O)COP(=O)([O-])OCC[N+](C)(C)C [C16-lyso-PAF]
EC50 (lyso-PLD [4]): ~400 µM

— PMC10969092, “Characterization of Lysophospholipase D Activity in Mammalian Cell Membranes” (Cells, 2024)
